1 molecule from ChEMBL document CHEMBL4342480, “Design of Dual Inhibitors of Soluble Epoxide Hydrolase and LTA4 Hydrolase” (ACS Med Chem Lett, 2020) can be followed below.

Each structure is given as a SMILES string.

Assay [1] has as its system Macrophage. As to the kind of experiment: Antiinflammatory activity in Escherichia coli O6:K2:H1-induced human M1 macrophage assessed as change in 12-HEPE level at 1 uM preincubated for 10 mins followed by Escherichia coli O6:K2:H1-stimulation and measured after 180 mins by UPLC-MS/MS analysis relative to control. The class given is functional.
In assay [2] the test system is Macrophage. Description: Antiinflammatory activity in Escherichia coli O6:K2:H1-induced human M2 macrophage assessed as change in PGD2 level at 1 uM preincubated for 10 mins followed by Escherichia coli O6:K2:H1-stimulation and measured after 180 mins by UPLC-MS/MS analysis relative to control. The class given is functional.
For assay [3], the system named is Macrophage. As to the kind of experiment: Antiinflammatory activity in Escherichia coli O6:K2:H1-induced human M2 macrophage assessed as change in PGF2alpha level at 10 uM preincubated for 10 mins followed by Escherichia coli O6:K2:H1-stimulation and measured after 180 mins by UPLC-MS/MS analysis relative to control. The class given is functional.
The subject of assay [4] is Macrophage. Description: Antiinflammatory activity in Escherichia coli O6:K2:H1-induced human M1 macrophage assessed as change in 12-HETE level at 1 uM preincubated for 10 mins followed by Escherichia coli O6:K2:H1-stimulation and measured after 180 mins by UPLC-MS/MS analysis relative to control. The format is functional.
The subject of assay [5] is Macrophage. Description: Antiinflammatory activity in Escherichia coli O6:K2:H1-induced human M2 macrophage assessed as change in 14-HDHA level at 10 uM preincubated for 10 mins followed by Escherichia coli O6:K2:H1-stimulation and measured after 180 mins by UPLC-MS/MS analysis relative to control. The format is functional.
Assay [6] concerns Macrophage. As to the kind of experiment: Antiinflammatory activity in Escherichia coli O6:K2:H1-induced human M1 macrophage assessed as change in 7-HDHA level at 1 uM preincubated for 10 mins followed by Escherichia coli O6:K2:H1-stimulation and measured after 180 mins by UPLC-MS/MS analysis relative to control. The class given is functional.
In assay [7] the test system is Macrophage. Description: Antiinflammatory activity in Escherichia coli O6:K2:H1-induced human M2 macrophage assessed as change in 4-HDHA level at 10 uM preincubated for 10 mins followed by Escherichia coli O6:K2:H1-stimulation and measured after 180 mins by UPLC-MS/MS analysis relative to control. The format is functional.
The subject of assay [8] is Macrophage. As to the kind of experiment: Antiinflammatory activity in Escherichia coli O6:K2:H1-induced human M2 macrophage assessed as change in 7-HDHA level at 1 uM preincubated for 10 mins followed by Escherichia coli O6:K2:H1-stimulation and measured after 180 mins by UPLC-MS/MS analysis relative to control. The class given is functional.
For assay [9], the system named is Macrophage. Description: Antiinflammatory activity in Escherichia coli O6:K2:H1-induced human M1 macrophage assessed as change in 15-HEPE level at 1 uM preincubated for 10 mins followed by Escherichia coli O6:K2:H1-stimulation and measured after 180 mins by UPLC-MS/MS analysis relative to control. The format is functional.
Assay [10] has as its system Macrophage. Description: Antiinflammatory activity in Escherichia coli O6:K2:H1-induced human M2 macrophage assessed as change in PGD2 level at 10 uM preincubated for 10 mins followed by Escherichia coli O6:K2:H1-stimulation and measured after 180 mins by UPLC-MS/MS analysis relative to control. The class given is functional.
The subject of assay [11] is Macrophage. Description: Antiinflammatory activity in Escherichia coli O6:K2:H1-induced human M2 macrophage assessed as change in 17-HDHA level at 1 uM preincubated for 10 mins followed by Escherichia coli O6:K2:H1-stimulation and measured after 180 mins by UPLC-MS/MS analysis relative to control. The class given is functional.
Assay [12] concerns Macrophage. As to the kind of experiment: Antiinflammatory activity in Escherichia coli O6:K2:H1-induced human M1 macrophage assessed as change in PGE2 level at 10 uM preincubated for 10 mins followed by Escherichia coli O6:K2:H1-stimulation and measured after 180 mins by UPLC-MS/MS analysis relative to control. The format is functional.
In assay [13] the test system is Macrophage. Description: Antiinflammatory activity in Escherichia coli O6:K2:H1-induced human M2 macrophage assessed as change in PGE2 level at 1 uM preincubated for 10 mins followed by Escherichia coli O6:K2:H1-stimulation and measured after 180 mins by UPLC-MS/MS analysis relative to control. The class given is functional.
Assay [14] has as its system Macrophage. As to the kind of experiment: Antiinflammatory activity in Escherichia coli O6:K2:H1-induced human M2 macrophage assessed as change in 5-HEPE level at 10 uM preincubated for 10 mins followed by Escherichia coli O6:K2:H1-stimulation and measured after 180 mins by UPLC-MS/MS analysis relative to control. The format is functional.
The test system of assay [15] is Macrophage. As to the kind of experiment: Antiinflammatory activity in Escherichia coli O6:K2:H1-induced human M1 macrophage assessed as change in PGF2alpha level at 10 uM preincubated for 10 mins followed by Escherichia coli O6:K2:H1-stimulation and measured after 180 mins by UPLC-MS/MS analysis relative to control. The format is functional.
In assay [16] the test system is Macrophage. Description: Antiinflammatory activity in Escherichia coli O6:K2:H1-induced human M2 macrophage assessed as change in 18-HEPE level at 1 uM preincubated for 10 mins followed by Escherichia coli O6:K2:H1-stimulation and measured after 180 mins by UPLC-MS/MS analysis relative to control. The format is functional.
For assay [17], the system named is Macrophage. As to the kind of experiment: Antiinflammatory activity in Escherichia coli O6:K2:H1-induced human M1 macrophage assessed as change in 5-HETE level at 1 uM preincubated for 10 mins followed by Escherichia coli O6:K2:H1-stimulation and measured after 180 mins by UPLC-MS/MS analysis relative to control. The format is functional.
Assay [18] has as its target T1, Leukotriene A-4 hydrolase (Homo sapiens, UniProt P09960).
T1 sequence (P09960 whole entry): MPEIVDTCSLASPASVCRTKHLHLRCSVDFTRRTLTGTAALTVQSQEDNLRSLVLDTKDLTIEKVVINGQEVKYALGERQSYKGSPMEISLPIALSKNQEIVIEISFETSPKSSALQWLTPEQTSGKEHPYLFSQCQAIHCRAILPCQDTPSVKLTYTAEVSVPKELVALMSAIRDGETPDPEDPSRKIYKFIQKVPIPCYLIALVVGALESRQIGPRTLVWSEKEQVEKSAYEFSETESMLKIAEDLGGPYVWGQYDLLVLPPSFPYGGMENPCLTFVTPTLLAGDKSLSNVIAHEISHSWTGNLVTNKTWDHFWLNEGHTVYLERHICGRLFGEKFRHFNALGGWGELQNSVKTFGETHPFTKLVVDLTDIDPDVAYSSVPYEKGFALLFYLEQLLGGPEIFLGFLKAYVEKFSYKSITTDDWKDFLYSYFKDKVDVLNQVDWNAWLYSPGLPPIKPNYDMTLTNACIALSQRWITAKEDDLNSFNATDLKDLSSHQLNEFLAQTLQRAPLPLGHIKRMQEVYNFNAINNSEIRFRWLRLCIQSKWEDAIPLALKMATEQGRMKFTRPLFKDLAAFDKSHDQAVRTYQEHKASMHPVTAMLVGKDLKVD
Description: Inhibition of (His)6 tagged human recombinant LTA4H expressed in Escherichia coli BL21(DE3) using non-fluorescent L-arginine-7-amino-4-methylcoumarine as substrate preincubated for 30 mins followed by substrate addition and measured for 30 mins by fluorescence based assay.

Assay [19] relates to Macrophage. As to the kind of experiment: Antiinflammatory activity in Escherichia coli O6:K2:H1-induced human M1 macrophage assessed as change in 14-HDHA level at 1 uM preincubated for 10 mins followed by Escherichia coli O6:K2:H1-stimulation and measured after 180 mins by UPLC-MS/MS analysis relative to control. The format is functional.

Turning to `O=C(Cc1ccc(Oc2nc3ccccc3s2)cc1F)NCCc1ccc(F)cc1`, the Activity in the assay on Macrophage [1] is recorded as 95%; with Macrophage [2], 63%; with Macrophage [3], 45%; in the assay with Macrophage [4], 99%; in the assay on Macrophage [5], 106%; in the assay with Macrophage [6] it was 113%. For the same molecule, the Activity was 78% in the assay on Macrophage [7]; 94% in the assay on Macrophage [8]; 97% with Macrophage [9]; 64% in the assay on Macrophage [10]; 106% with Macrophage [11]; 77% in the assay with Macrophage [12]. Moreover, the Activity is recorded as 61% with Macrophage [13]; 97% with Macrophage [14]; 80% in the assay on Macrophage [15]; 86% with Macrophage [16]; 164% with Macrophage [17]; 110% in the assay on Macrophage [19]. In addition, the concentration for half-maximal inhibition (IC50) in assay [18] was 200 nM.
